Legend:
[1] = target: T1, Ks-Amt5 (ammonium sensor histidine kinase, HK domain) (Candidatus Kuenenia stuttgartensis, UniProt Q1Q357); assay: SAXS, compaction of the HK domain on nucleotide addition; assay type: binding
T1 construct: gene amtb; Ks-Amt5^426–679 (soluble HK domain)

[2] = target: T1, Ks-Amt5 (ammonium sensor histidine kinase, HK domain); assay: isothermal titration calorimetry (also SAXS and […] autophosphorylation); assay type: binding
[3] = target: T1, Ks-Amt5 (ammonium sensor histidine kinase, HK domain); assay: isothermal titration calorimetry; assay type: binding
[4] = target: T2, Ks-Amt5 (ammonium sensor/transducer) (Candidatus Kuenenia stuttgartensis, UniProt Q1Q357); assay: microscale thermophoresis (weak; no electrogenic response); assay type: binding; parameters: gene amtb; Ks-Amt5
T2 sequence (Q1Q357 1-679): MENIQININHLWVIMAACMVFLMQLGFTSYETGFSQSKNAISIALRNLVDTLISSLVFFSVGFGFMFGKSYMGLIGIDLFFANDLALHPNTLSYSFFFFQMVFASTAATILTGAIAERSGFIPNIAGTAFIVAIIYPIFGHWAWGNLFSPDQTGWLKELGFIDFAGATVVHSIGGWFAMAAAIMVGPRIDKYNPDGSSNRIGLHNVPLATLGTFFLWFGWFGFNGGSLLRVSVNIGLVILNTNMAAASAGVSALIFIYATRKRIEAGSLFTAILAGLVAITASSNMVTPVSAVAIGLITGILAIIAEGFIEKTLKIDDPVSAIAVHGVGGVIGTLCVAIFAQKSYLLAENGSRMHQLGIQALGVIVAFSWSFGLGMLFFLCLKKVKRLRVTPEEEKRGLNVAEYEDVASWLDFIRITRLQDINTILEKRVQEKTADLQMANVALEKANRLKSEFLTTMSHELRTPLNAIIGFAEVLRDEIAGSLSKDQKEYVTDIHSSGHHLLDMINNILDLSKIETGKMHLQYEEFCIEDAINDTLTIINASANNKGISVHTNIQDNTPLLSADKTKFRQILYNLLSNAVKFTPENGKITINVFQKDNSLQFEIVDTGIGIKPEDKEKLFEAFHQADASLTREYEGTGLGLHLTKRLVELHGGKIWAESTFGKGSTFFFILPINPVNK

[5] = target: T2, Ks-Amt5 (ammonium sensor/transducer); assay: biochemical; parameters: gene amtb
[6] = target: Ks-Amt5 (kust_3690), full-length ammonium sensor histidine kinase (Candidatus Kuenenia stuttgartiensis); assay: SEC; Superdex 200 26/60; buffer C (20 mM HEPES/NaOH pH 7.5 or 20 mM Tris/HCl pH 8.0, 100 mM NaCl) with 5-10 % glycerol and detergent; 4 °C; self-association of the detergent-solubilized protein
[7] = target: Ks-Amt5 (kust_3690), full-length ammonium sensor histidine kinase (Candidatus Kuenenia stuttgartiensis); assay: crystal structure; full-length Ks-Amt5; space group P6_(3); 1.98 Å; only the Amt domain (residues 1-405) modelled, HK domain disordered
[8] = target: Ks-Amt5 (kust_3690), full-length ammonium sensor histidine kinase (Candidatus Kuenenia stuttgartiensis); assay: SAXS; full-length Ks-Amt5 in 0.09 % CYMAL-5; batch or SEC-SAXS (Superdex 200 10/300); buffer C with 5 % glycerol; 20 °C; molecular weight from forward scattering I(0)

T1 sequence (Q1Q357 entry or part of it): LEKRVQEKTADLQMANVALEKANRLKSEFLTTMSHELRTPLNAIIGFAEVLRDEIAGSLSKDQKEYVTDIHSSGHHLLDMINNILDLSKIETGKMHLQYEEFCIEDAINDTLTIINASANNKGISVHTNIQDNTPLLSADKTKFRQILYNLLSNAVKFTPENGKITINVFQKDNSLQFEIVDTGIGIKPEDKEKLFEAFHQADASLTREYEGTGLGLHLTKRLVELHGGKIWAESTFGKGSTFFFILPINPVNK

**Q.** `Nc1ncnc2c1ncn2[C@@H]1O[C@H](COP(=O)(O)OP(=O)(O)CP(=O)(O)O)[C@@H](O)[C@H]1O` [APPCP] was tested. Which “SAXS, compaction of the HK domain on nucleotide addition” value [1] did it give?
**A.** change toward a more compact and less-flexible structure when either APPCP or ATP are added to the HK domain

**Q.** Which Kd [2] does the source give for `Nc1ncnc2c1ncn2[C@@H]1O[C@H](COP(=O)(O)OP(=O)(O)OP(=O)(O)O)[C@@H](O)[C@H]1O` [ATP] here?
**A.** 11.16 ± 0.03 µM

**Q.** Which Kd [3] does the source give for `Nc1ncnc2c1ncn2[C@@H]1O[C@H](CO[P@](=O)(O)O[P@](=O)(O)O[P@@](=O)(O)S)[C@@H](O)[C@H]1O` [ATPγS] here?
**A.** 36.74 ± 0.05 µM

**Q.** `CN` [MA, methylammonium] was tested. Which Kd [4] did it give?
**A.** 2350 ± 440 µM

**Q.** How did the Kd [5] turn out when `N` [NH4^+] was run?
**A.** 41 ± 24 µM

**Q.** How did the stoichiometry N [6] turn out when “Ks-Amt5 (kust_3690), full-length ammonium sensor histidine kinase (natural protein)” was run?
**A.** 3

**Q.** And the stoichiometry N [7]?
**A.** 3

**Q.** And the stoichiometry N [8]?
**A.** 3

From article PMC5764959, “Signaling ammonium across membranes through an ammonium sensor histidine kinase” (Nature Communications, 2018)
